Experimental data as given in US12371428B2 (Exelixis, Inc., priority 2019, dated 2025).

How the values were obtained:
[1] = target: Mer (phospho-Mer, MERTK-transfected 293A cells) (Homo sapiens (Human), UniProt Q12866); assay: Mer autophosphorylation ELISA in transient transfected 293A cells (Example H); format: cell-based; details: cellular activity; Mer autophosphorylation ELISA in transient transfected 293A cells
Outline: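 IC50 from phospho-Mer ELISA of MERTK-transfected 293A cell lysates after 1 h treatment with serially diluted compound in serum-free medium.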

[2] = target: Human KDR (residues 790-1356) (Homo sapiens (Human), UniProt P35968); assay: Human KDR kinase assay, HTRF KinEase (Example B-2); format: biochemical
Outline: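 Ten compound concentrations (3% DMSO final) were pre-plated, then KDR (790-1356) with biotinylated peptide in Mg/Mn/DTT buffer was added; ATP at Km (4.0 μM) started a 40 min room-temperature reaction. Detection used Eu-TK antibody and SA-XL665 in EDTA buffer; activity normalized to DMSO and reference inhibitor, IC50 by logistic fit.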

[3] = protocol of Example B-2 (other compounds)

Human KDR (residues 790-1356), sequence (P35968 790-1356): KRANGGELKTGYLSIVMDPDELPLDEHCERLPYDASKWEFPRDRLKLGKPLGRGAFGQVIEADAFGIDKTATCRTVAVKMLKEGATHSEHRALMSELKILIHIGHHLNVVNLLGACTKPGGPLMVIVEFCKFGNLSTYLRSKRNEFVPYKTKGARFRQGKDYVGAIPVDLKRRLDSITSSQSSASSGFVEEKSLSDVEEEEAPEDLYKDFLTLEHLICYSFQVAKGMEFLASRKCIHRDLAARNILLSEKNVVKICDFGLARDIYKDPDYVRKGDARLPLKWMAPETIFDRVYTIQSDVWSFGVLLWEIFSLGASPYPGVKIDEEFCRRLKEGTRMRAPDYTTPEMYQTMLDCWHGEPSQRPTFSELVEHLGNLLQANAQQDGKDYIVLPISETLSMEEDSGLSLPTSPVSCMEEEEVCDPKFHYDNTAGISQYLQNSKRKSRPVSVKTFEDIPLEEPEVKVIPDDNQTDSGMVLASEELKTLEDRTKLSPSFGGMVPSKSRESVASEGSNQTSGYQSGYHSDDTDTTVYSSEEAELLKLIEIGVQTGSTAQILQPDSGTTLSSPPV
Mer (phospho-Mer, MERTK-transfected 293A cells), sequence (Q12866 21-999): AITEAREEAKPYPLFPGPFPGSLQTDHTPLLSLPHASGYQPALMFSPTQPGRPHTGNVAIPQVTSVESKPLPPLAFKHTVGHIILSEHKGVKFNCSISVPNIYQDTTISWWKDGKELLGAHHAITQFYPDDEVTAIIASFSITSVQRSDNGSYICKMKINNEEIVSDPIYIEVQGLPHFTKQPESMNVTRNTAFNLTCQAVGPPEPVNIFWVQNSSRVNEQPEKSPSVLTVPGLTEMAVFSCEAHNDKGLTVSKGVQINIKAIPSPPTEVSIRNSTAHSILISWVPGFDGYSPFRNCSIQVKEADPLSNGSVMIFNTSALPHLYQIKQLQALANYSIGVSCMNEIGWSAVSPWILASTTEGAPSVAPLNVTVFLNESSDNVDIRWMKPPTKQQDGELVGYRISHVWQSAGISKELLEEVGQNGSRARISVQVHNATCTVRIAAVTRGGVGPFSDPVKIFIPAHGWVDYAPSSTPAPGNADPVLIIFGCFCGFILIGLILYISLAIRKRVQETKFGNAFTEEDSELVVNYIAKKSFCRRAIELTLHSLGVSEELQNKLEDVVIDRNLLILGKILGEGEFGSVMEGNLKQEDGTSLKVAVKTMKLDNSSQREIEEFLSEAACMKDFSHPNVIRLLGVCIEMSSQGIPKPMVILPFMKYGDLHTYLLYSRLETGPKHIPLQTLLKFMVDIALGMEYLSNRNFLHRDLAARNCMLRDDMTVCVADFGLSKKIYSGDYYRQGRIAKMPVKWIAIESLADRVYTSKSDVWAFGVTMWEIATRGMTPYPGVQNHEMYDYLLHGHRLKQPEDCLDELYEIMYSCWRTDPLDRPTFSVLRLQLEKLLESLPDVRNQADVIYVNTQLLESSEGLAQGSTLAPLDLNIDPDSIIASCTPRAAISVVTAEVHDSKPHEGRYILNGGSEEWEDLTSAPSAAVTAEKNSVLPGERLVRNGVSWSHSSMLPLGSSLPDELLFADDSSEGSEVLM

SMILES | IC50 [1] [nM] | IC50 ([2]; protocol of Example B-2) [nM] | IC50 [2, 3] [nM]
COc1cc2nccc(Oc3ccc(NC(=O)c4cn(C)c(C(=O)O)c(-c5ccc(F)cc5)c4=O)cc3F)c2nc1OC [Compound 553, 5-[[4-[(6,7-Dimethoxy-1,5-naphthyridin-4-yl)oxy]-3-fluorophenyl]carbamoyl]-3-(4-fluorophenyl)-1-methyl-4-oxopyridine-2-carboxylic acid] | 100 to 300 | > 300 | 
COc1nc2c(Oc3ccc(NC(=O)c4cnc(C)c(-c5ccc(F)cc5C)c4O)cc3F)ccnc2cc1C [Compound 460, N-[3-fluoro-4-[(6-methoxy-7-methyl-1,5-naphthyridin-4-yl)oxy]phenyl]-5-(4-fluoro-2-methylphenyl)-4-hydroxy-6-methylpyridine-3-carboxamide] | < 100 | > 300 | 
COc1cnc2c(Oc3ccc(NC(=O)c4c(C)n(C)c(C)c(-c5ccc(F)cc5)c4=O)cc3F)ccnc2c1 [Compound 508, N-[3-fluoro-4-[(7-methoxy-1,5-naphthyridin-4-yl)oxy]phenyl]-5-(4-fluorophenyl)-1,2,6-trimethyl-4-oxopyridine-3-carboxamide] | < 100 | > 300 | 
COc1cc2c(Oc3ccc(NC(=O)c4ccc(C)n(-c5ccc(F)cc5)c4=O)cc3F)ccnc2cn1 [Compound 494, N-[3-fluoro-4-[(6-methoxy-1,7-naphthyridin-4-yl)oxy]phenyl]-1-(4-fluorophenyl)-6-methyl-2-oxopyridine-3-carboxamide] | < 100 | 100 to 300 | 
COCc1nc(C)c(-c2ccc(F)cc2)c(O)c1C(=O)Nc1ccc(Oc2ccnc3ccc(OC)nc23)cc1 [Compound 510, 5-(4-fluorophenyl)-4-hydroxy-2-(methoxymethyl)-N-[4-[(6-methoxy-1,5-naphthyridin-4-yl)oxy]phenyl]-6-methylpyridine-3-carboxamide] | < 100 | 100 to 300 | 
COc1cc2nccc(Oc3ccc(NC(=O)c4c(C)nc(C)c(-c5ccc(F)cc5)c4O)cc3F)c2nc1OC [Compound 154, N-[4-[(6,7-Dimethoxy-1,5-naphthyridin-4-yl)oxy]-3-fluorophenyl]-5-(4-fluorophenyl)-4-hydroxy-2,6-dimethylpyridine-3-carboxamide] | < 100 |  | < 100

The remaining lines, values ahead:

IC50 [1] [nM] | IC50 ([2]; protocol of Example B-2) [nM] | IC50 [2, 3] [nM] | SMILES
< 100 | > 300 |  | COc1ccc2nccc(Oc3ccc(NC(=O)c4cn(C)c(CF)c(-c5ccc(F)cc5)c4=O)cc3F)c2n1 [Compound 561, N-[3-Fluoro-4-[(6-methoxy-1,5-naphthyridin-4-yl)oxy]phenyl]-6-(fluoromethyl)-5-(4-fluorophenyl)-1-methyl-4-oxopyridine-3-carboxamide]
< 100 | < 100 |  | COc1cc2nccc(Oc3ccc(NC(=O)c4cnc(COC(C)=O)c(-c5ccc(F)cc5)c4O)cc3F)c2nc1OC [Compound 544, [5-[[4-[(6,7-dimethoxy-1,5-naphthyridin-4-yl)oxy]-3-fluorophenyl]carbamoyl]-3-(4-fluorophenyl)-4-hydroxypyridin-2-yl]methyl acetate]
< 100 | > 300 |  | COc1cc2nccc(Oc3ccc(NC(=O)c4cc(C)nn(-c5ccc(F)cc5)c4=O)cc3F)c2nc1OC [Compound 519, N-[4-[(6,7-dimethoxy-1,5-naphthyridin-4-yl)oxy]-3-fluorophenyl]-2-(4-fluorophenyl)-6-methyl-3-oxopyridazine-4-carboxamide]
< 100 | < 100 |  | COc1cnc2c(Oc3ccc(NC(=O)c4nn(C)c(C)c(-c5ccc(F)cc5C)c4=O)cc3F)ccnc2c1 [Compound 513, N-[3-fluoro-4-[(7-methoxy-1,5-naphthyridin-4-yl)oxy]phenyl]-5-(4-fluoro-2-methylphenyl)-1,6-dimethyl-4-oxopyridazine-3-carboxamide]
< 100 |  | < 100 | COCCOc1ccc2nccc(Oc3ccc(NC(=O)c4c(C)nc(C)c(-c5ccc(F)cc5)c4O)cc3F)c2n1 [Compound 349, N-[3-fluoro-4-[[6-(2-methoxyethoxy)-1,5-naphthyridin-4-yl]oxy]phenyl]-5-(4-fluorophenyl)-4-hydroxy-2,6-dimethylpyridine-3-carboxamide]
